The source of these data is patent US20160137639A1, “TRIAZOLE-ISOXAZOLE COMPOUND AND MEDICAL USE THEREOF” (JAPAN TOBACCO INC., priority 2012, published 2016).

Read-outs that look alike come from different tables or passages of the source. Where only a bound is given, the exact number is not on record here.

One test addresses T1, human RORγ (Homo sapiens, UniProt P51449).
T1 construct: human, NM_005060.3 and from Ser253 to Lys518; expressed in transfected cells; host or cells: CHO cells (transient co-transfection with pG5-Luc reporter)
T1 sequence (P51449 253-518): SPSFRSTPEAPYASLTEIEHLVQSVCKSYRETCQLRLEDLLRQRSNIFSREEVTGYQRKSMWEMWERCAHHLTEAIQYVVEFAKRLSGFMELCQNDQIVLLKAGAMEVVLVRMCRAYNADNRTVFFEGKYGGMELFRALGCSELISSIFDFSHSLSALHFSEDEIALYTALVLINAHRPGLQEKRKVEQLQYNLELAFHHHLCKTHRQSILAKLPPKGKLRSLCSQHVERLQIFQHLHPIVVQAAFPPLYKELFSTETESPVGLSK
In words: Luciferase reporter gene assay of inhibitory effect against RORγ transcriptional activity (GAL4-hRORγ plasmid in CHO cells). Format: cell-based. For orientation: Reporter assays use an easily measured gene product as a stand-in for the process of interest.

A further test concerns the target T2, mouse RORγ (Mus musculus, UniProt P51450).
T2 construct: mouse, NM_011281.2 and from Ile251 to Lys516; expressed in transfected cells; host or cells: CHO cells (transient co-transfection with pG5-Luc reporter)
T2 sequence (P51450 251-516): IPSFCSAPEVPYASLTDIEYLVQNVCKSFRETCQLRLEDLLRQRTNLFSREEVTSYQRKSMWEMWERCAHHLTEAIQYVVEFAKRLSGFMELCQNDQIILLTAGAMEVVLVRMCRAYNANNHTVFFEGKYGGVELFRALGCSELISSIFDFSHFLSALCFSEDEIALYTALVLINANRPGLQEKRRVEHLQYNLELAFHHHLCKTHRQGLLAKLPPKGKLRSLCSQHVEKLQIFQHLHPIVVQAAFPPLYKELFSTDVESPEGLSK
Put plainly: Luciferase reporter gene assay of inhibitory effect against RORγ transcriptional activity (GAL4-mRORγ plasmid in CHO cells). Format: cell-based. In a few lines: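 Readout is intracellular luciferase after 2-day compound exposure (8 concentrations, 0.1% DMSO) in CHO cells expressing GAL4 fused to mouse RORγ LBD residues Ile251–Lys516 plus pG5-Luc reporter. EC50 fitted from %-of-control; points showing resazurin-detected cytotoxicity dropped.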

Usually EC50 stands for the concentration at which the effect is half-maximal.

Consider `C=CCCCCc1onc(CCC(=O)Nc2cccc(C=C)c2)c1C1CC1` [Example F-738], for which the EC50 at human RORγ (read-out: LUC EC50 hRORg) and on mouse RORγ (read-out: LUC EC50 mRORg) was more than 3 µM each time.
Take `CCn1c(CCCC(C)(C)C)nnc1[C@H]1CN(C(C)=O)C[C@@H]1C(=O)Nc1ccc(C)cc1C` (racemic) [Example F-351]: the 50% effective concentration (EC50) on human RORγ (read-out: LUC EC50 (μM) hRORg) and at mouse RORγ (read-out: LUC EC50 (μM) mRORg) was less than 3 µM each time.
Consider `COc1ccccc1CNC(=O)CCc1nnc(CCC(C)C)n1C1CC1` [Example F-179], for which the EC50 at human RORγ (read-out: LUC EC50 (μM) hRORg) and at mouse RORγ (read-out: LUC EC50 (μM) mRORg) was more than 3 µM in each case.
`CC(=O)N1C[C@H](C(=O)Nc2ccc(C)cc2C)[C@@H](c2nnc(CCC(C)C)n2C2CC2)C1` (racemic) [Example F-162]: the 50% effective concentration (EC50) at human RORγ (read-out: LUC EC50 (μM) hRORg) was more than 3 µM; on mouse RORγ (read-out: LUC EC50 (μM) mRORg), less than 3 µM.
In the same order, the values of `C=CCC(CC(=O)NCc1ccc(C)cc1OC)c1nnc(CCCC(C)C)n1C1CC1` (racemic) [Example F-200] are less than 3 µM and less than 3 µM.
In the same order, the values of `CC(C)CCc1nnc(CCC(=O)NCCc2ccccc2)n1C1CC1` [Example F-58] are more than 3 µM and more than 3 µM.
Turning to `Cc1ccc(NC(=O)C[C@H](CC(C)C)c2nnc(-c3cc(CC(C)C)on3)n2C2CC2)c(C)c1` [Example F-586], the half-maximal effective concentration (EC50) at human RORγ (read-out: LUC EC50 hRORg) and at mouse RORγ (read-out: LUC EC50 mRORg) was less than 3 µM each time.
For `CC(=O)N1CCCC(CCc2nnc(CCC(=O)Nc3cccc(Cl)c3C)n2C2CC2)C1` (racemic) [Example F-190], the half-maximal effective concentration (EC50) on human RORγ (read-out: LUC EC50 (μM) hRORg) and at mouse RORγ (read-out: LUC EC50 (μM) mRORg) was more than 3 µM in each case.
For the compound `CC(=O)N1C[C@H](C(=O)Nc2ccc(C)cc2C)[C@@H](c2nnc([C@H]3C[C@H](OC(C)C)C3)n2C2CC2)C1` (racemic) [Example F-329], the EC50 at human RORγ (read-out: LUC EC50 (μM) hRORg) and on mouse RORγ (read-out: LUC EC50 (μM) mRORg) was more than 3 µM each time.
On to `Cc1ccc(NC(=O)CCc2noc(C3(O)CC(CC(C)(C)C)C3)c2C2CC2)c(Cl)c1` (mixture of isomers) [Example F-732], for which the half-maximal effective concentration (EC50) on human RORγ (read-out: LUC EC50 hRORg) and at mouse RORγ (read-out: LUC EC50 mRORg) was less than 3 µM throughout.
For `Cc1ccc(NC(=O)C[C@H](CCC(=O)O)c2noc(-c3cc(C4(C)CCCC4)on3)c2C2CC2)c(Cl)c1` [Example E-42], the EC50 on human RORγ (read-out: LUC EC50 (μM) hRORg) and at mouse RORγ (read-out: LUC EC50 (μM) mRORg) was less than 3 µM each time.
For `CCn1c(CCCC(C)(C)C)nnc1[C@@H]1[C@@H](C(=O)Nc2ccc(C)cc2C)CCN1C(C)=O` [Example F-369], the half-maximal effective concentration (EC50) on human RORγ (read-out: LUC EC50 (μM) hRORg) and at mouse RORγ (read-out: LUC EC50 (μM) mRORg) was less than 3 µM each time.
Take `Cc1ccc(NC(=O)C[C@@H](CCO)c2nnc(CCC3CCCCC3)n2C2CC2)c(C)c1` [Example F-384]: the EC50 on human RORγ (read-out: LUC EC50 (μM) hRORg) and at mouse RORγ (read-out: LUC EC50 (μM) mRORg) was more than 3 µM in each case.
On to `Cc1ccc(NC(=O)[C@H]2CC(N(C)C)C[C@@H]2c2nnc([C@H]3C[C@@H](CC(C)C)C3)n2C2CC2)c(C)c1` (single isomer, unassigned) [Example F-534], for which the 50% effective concentration (EC50) on human RORγ (read-out: LUC EC50 hRORg) and on mouse RORγ (read-out: LUC EC50 mRORg) was less than 3 µM each time.
Consider `CCC(C)(C)C[C@H]1C[C@@H](c2onc([C@@H](CCC(=O)O)CC(=O)Nc3ccc(C)nc3C)c2C(F)(F)F)C1` [Example F-697], for which the concentration for a half-maximal effect (EC50) at human RORγ (read-out: LUC EC50 hRORg) and at mouse RORγ (read-out: LUC EC50 mRORg) was less than 3 µM each time.
Regarding `Cc1ccc(NC(=O)C[C@H](CCO)c2nnc(CCCC(C)C)n2C2CC2)c(C)c1` [Example F-314], the EC50 at human RORγ (read-out: LUC EC50 (μM) hRORg) and on mouse RORγ (read-out: LUC EC50 (μM) mRORg) was less than 3 µM throughout.
Consider `CCn1c(CCC(=O)Nc2cccc(Cl)c2C)nnc1CCC1CCCCC1` [Example F-39], for which the EC50 at human RORγ (read-out: LUC EC50 (μM) hRORg) and at mouse RORγ (read-out: LUC EC50 (μM) mRORg) was less than 3 µM in each case.
With `Cc1ccc(NC(=O)C[C@H](CCO)c2nnc(CCCC(C)(C)C)n2CC(F)(F)F)c(C)c1` [Example F-380], the EC50 at human RORγ (read-out: LUC EC50 (μM) hRORg) and on mouse RORγ (read-out: LUC EC50 (μM) mRORg) was less than 3 µM each time.
For `Cc1c(Cl)cccc1NC(=O)CCc1nnc(CC(=O)OC(C)(C)C)n1C1CC1` [Example F-178], the EC50 on human RORγ (read-out: LUC EC50 (μM) hRORg) and at mouse RORγ (read-out: LUC EC50 (μM) mRORg) was less than 3 µM throughout.
As to `Cc1ccc(NC(=O)C[C@H](CCO)c2nnc(CCC3CCCCC3)n2C2CC2)c(C)c1` [Example F-385], the concentration giving a half-maximal response (EC50) on human RORγ (read-out: LUC EC50 (μM) hRORg) and on mouse RORγ (read-out: LUC EC50 (μM) mRORg) was less than 3 µM throughout.
Take `CC(=O)N1C[C@H](C(=O)Nc2ccc(C)cc2C)[C@@H](c2nnc(CCOC(C)(C)C(F)(F)F)n2C2CC2)C1` (racemic) [Example F-325]: the 50% effective concentration (EC50) at human RORγ (read-out: LUC EC50 (μM) hRORg) and on mouse RORγ (read-out: LUC EC50 (μM) mRORg) was less than 3 µM throughout.
For `COc1cccc(CC(CC(=O)Nc2ccc(C)cc2C)c2nnc([C@H]3C[C@@H](CC(C)C)C3)n2C2CC2)n1` (mixture of isomers) [Example F-504], the EC50 at human RORγ (read-out: LUC EC50 hRORg) and on mouse RORγ (read-out: LUC EC50 mRORg) was less than 3 µM each time.
